From US12479847B2 (DANA-FARBER CANCER INSTITUTE, INC., priority 2019, dated 2025) come the findings set out here.

The structures appear in SMILES notation. pIC50: −log10 of the molar value.

What is called pIC50 is the negative decadic logarithm of the IC50, by convention in mol/L. Read a low pIC50 as a large IC50.

Chain of human LRRK2 kinase (Q5S007 whole entry): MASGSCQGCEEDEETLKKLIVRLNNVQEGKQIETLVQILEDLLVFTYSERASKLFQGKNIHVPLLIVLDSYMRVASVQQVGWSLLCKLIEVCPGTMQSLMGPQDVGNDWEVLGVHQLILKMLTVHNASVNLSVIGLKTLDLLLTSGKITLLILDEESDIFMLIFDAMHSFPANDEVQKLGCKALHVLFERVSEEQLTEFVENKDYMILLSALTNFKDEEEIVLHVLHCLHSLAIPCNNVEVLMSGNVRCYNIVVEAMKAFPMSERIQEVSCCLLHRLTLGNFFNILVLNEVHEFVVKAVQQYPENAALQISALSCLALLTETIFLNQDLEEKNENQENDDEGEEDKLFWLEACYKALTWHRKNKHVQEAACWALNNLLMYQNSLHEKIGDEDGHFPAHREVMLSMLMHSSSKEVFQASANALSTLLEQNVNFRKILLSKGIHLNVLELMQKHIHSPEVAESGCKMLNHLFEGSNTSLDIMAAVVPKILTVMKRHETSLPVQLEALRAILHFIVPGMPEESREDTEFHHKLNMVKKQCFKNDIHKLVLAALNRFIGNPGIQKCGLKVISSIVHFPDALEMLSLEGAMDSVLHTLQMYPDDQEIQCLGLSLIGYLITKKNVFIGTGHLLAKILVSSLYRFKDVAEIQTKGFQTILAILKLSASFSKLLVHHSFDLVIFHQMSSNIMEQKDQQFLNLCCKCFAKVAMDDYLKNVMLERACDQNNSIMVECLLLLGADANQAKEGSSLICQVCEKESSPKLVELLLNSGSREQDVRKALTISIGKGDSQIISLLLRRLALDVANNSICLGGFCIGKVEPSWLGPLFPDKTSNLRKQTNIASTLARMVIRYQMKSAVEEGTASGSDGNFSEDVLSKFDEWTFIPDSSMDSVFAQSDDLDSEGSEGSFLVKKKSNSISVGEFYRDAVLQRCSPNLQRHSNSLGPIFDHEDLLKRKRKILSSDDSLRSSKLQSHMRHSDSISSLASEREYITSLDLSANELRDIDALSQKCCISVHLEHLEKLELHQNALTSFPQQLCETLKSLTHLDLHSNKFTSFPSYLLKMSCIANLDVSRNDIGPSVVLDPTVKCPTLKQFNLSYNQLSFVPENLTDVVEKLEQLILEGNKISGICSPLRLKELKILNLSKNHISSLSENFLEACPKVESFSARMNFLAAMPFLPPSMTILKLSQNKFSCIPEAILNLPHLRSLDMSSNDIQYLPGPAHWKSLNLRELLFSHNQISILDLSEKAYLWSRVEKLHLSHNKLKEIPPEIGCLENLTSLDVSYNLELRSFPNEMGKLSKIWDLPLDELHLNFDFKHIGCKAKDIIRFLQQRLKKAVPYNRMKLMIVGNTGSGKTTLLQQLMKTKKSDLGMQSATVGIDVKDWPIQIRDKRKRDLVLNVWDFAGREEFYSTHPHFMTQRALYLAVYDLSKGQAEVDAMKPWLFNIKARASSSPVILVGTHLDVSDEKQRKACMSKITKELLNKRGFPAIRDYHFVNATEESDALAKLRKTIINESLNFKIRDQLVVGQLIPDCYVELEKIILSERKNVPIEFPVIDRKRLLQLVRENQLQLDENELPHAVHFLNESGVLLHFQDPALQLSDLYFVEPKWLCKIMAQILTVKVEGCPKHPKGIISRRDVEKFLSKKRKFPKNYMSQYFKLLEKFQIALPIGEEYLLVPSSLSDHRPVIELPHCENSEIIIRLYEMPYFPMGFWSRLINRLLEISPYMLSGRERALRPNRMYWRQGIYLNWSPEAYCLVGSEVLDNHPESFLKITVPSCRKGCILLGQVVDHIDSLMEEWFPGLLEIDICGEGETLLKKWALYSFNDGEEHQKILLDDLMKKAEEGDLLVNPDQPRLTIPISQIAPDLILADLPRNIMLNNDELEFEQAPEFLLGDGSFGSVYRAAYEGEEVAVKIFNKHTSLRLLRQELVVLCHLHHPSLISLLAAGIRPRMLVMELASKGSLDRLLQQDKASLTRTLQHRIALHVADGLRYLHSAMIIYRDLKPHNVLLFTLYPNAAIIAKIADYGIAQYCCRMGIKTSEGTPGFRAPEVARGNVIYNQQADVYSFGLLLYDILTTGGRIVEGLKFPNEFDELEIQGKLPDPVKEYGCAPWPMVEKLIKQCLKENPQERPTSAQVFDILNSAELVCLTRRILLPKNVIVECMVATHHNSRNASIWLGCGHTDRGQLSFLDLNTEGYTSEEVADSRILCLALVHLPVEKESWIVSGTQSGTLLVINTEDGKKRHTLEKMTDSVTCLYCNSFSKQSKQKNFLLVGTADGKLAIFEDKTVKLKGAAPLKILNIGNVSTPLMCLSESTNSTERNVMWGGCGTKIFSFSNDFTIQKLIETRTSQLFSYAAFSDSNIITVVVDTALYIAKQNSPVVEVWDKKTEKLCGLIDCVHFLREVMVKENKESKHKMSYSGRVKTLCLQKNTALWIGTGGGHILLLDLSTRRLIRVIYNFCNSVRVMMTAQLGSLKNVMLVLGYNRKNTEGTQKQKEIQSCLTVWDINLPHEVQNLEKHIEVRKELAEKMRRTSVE

The assay addresses human LRRK2 kinase (Homo sapiens, UniProt Q5S007). Particulars: LRRK2, ADP-Glo, ATP 10 μM, 60 minutes at 25° C.
In turn, `COCCNc1nc(Nc2ccc(S(C)(=O)=O)cc2OC)nc2[nH]cc(Cl)c12` [Compound 23, 5-chloro-N2-(2-methoxy-4-(methylsulfonyl)phenyl)-N4-(2-methoxyethyl)-7H-pyrrolo[2,3-d]pyrimidine-2,4-diamine] had a negative-log IC50 (pIC50) of more than 8.00.

Take `O=C(c1ccc(Nc2nc(NCC3CC3)c3c(Cl)c[nH]c3n2)c2c1OCCO2)N1CCOCC1` [Compound 65, (8-((5-chloro-4-((cyclopropylmethyl)amino)-7H-pyrrolo[2,3-d]pyrimidin-2-yl)amino)-2,3-dihydrobenzo[b][1,4]dioxin-5-yl)(morpholino)methanone]: the pIC50 was more than 8.00.

`CCNc1nc(Nc2ccc(C(=O)N3CCOCC3)c3c2OCC3)nc2[nH]cc(Cl)c12` [Compound 101, (7-((5-chloro-4-(ethylamino)-7H-pyrrolo[2,3-d]pyrimidin-2-yl)amino)-2,3-dihydrobenzofuran-4-yl)(morpholino)methanone] showed a negative-log IC50 (pIC50) of more than 8.00.

As to `COc1cc(S(=O)(=O)N2CCC(N3CCOCC3)CC2)ccc1Nc1nc(NC2CCC2)c2c(Cl)c[nH]c2n1` [Compound 28, 5-chloro-N4-cyclobutyl-N2-(2-methoxy-4-((4-morpholinopiperidin-1-yl)sulfonyl)phenyl)-7H-pyrrolo[2,3-d]pyrimidine-2,4-diamine], the pIC50 was 6.00 to 7.00.

The molecule `COc1cc(S(C)(=O)=O)ccc1Nc1nc(NCC(C)C)c2c(Cl)c[nH]c2n1` [Compound 32, 5-chloro-N4-isobutyl-N2-(2-methoxy-4-(methylsulfonyl)phenyl)-7H-pyrrolo[2,3-d]pyrimidine-2,4-diamine] gave a negative-log IC50 (pIC50) of 6.00 to 7.00.

With `COc1cc(P2(=O)CCN(C3CC3)CC2)ccc1Nc1nc(NC2CCCCC2)c2c(Cl)c[nH]c2n1` [Compound 93, 4-(4-((5-chloro-4-(cyclohexylamino)-7H-pyrrolo[2,3-d]pyrimidin-2-yl)amino)-3-methoxyphenyl)-1-cyclopropyl-1,4-azaphosphinane 4-oxide], the pIC50 was 6.00 to 7.00.

Take `CNc1nc(Nc2ccc(C(=O)N3CCOCC3)c3c2OCC3)nc2[nH]cc(Cl)c12` [Compound 76, (7-((5-chloro-4-(methylamino)-7H-pyrrolo[2,3-d]pyrimidin-2-yl)amino)-2,3-dihydrobenzofuran-4-yl)(morpholino)methanone]: the pIC50 is more than 8.00.

Take `COc1cc(P2(=O)CCN(C3CCOCC3)CC2)ccc1Nc1nc(NC2CCCCC2)c2c(Cl)c[nH]c2n1` [Compound 81, 4-(4-((5-chloro-4-(cyclohexylamino)-7H-pyrrolo[2,3-d]pyrimidin-2-yl)amino)-3-methoxyphenyl)-1-(tetrahydro-2H-pyran-4-yl)-1,4-azaphosphinane 4-oxide]: the pIC50 is 7.00 to 8.00.

In turn, `COc1cc(P2(=O)CCN(C(C)=O)CC2)ccc1Nc1nc(NC(C)C)c2c(Cl)c[nH]c2n1` [Compound 89, 1-(4-(4-((5-chloro-4-(isopropylamino)-7H-pyrrolo[2,3-d]pyrimidin-2-yl)amino)-3-methoxyphenyl)-4-oxido-1,4-azaphosphinan-1-yl)ethan-1-one] gave a negative logarithm of the IC50 (pIC50) of 7.00 to 8.00.

For the molecule `O=C(c1ccc(Nc2nc(NC3CCC3)c3c(Cl)c[nH]c3n2)c2c1OCCO2)N1CCC(N2CCOCC2)CC1` [Compound 4, (8-((5-chloro-4-(cyclobutylamino)-7H-pyrrolo[2,3-d]pyrimidin-2-yl)amino)-2,3-dihydrobenzo[b][1,4]dioxin-5-yl)(4-morpholinopiperidin-1-yl)methanone], the pIC50 is more than 8.00.

Regarding `COCCNc1nc(Nc2ccc(S(=O)(=O)N3CCC(N4CCOCC4)CC3)cc2OC)nc2[nH]cc(Cl)c12` [Compound 22, 5-chloro-N2-(2-methoxy-4-((4-morpholinopiperidin-1-yl)sulfonyl)phenyl)-N4-(2-methoxyethyl)-7H-pyrrolo[2,3-d]pyrimidine-2,4-diamine], the negative-log IC50 (pIC50) is more than 8.00.

With `COc1cc(S(=O)(=O)N2CCC(N3CCOCC3)CC2)ccc1Nc1nc(NC2CCCC2)c2c(Cl)c[nH]c2n1` [Compound 56, 5-chloro-N4-cyclopentyl-N2-(2-methoxy-4-((4-morpholinopiperidin-1-yl)sulfonyl)phenyl)-7H-pyrrolo[2,3-d]pyrimidine-2,4-diamine], the pIC50 is 7.00 to 8.00.

`CCNc1nc(Nc2ccc(C(=O)N3CCOCC3)c3c2OCCO3)nc2[nH]cc(Cl)c12` [Compound 17, (8-((5-chloro-4-(ethylamino)-7H-pyrrolo[2,3-d]pyrimidin-2-yl)amino)-2,3-dihydrobenzo[b][1,4]dioxin-5-yl)(morpholino)methanone] gave a pIC50 of more than 8.00.

Consider `O=C(c1ccc(Nc2nc(NC3CCC3)c3c(Cl)c[nH]c3n2)c2c1OCCO2)N1CCOCC1` [Compound 30, (8-((5-chloro-4-(cyclobutylamino)-7H-pyrrolo[2,3-d]pyrimidin-2-yl)amino)-2,3-dihydrobenzo[b][1,4]dioxin-5-yl)(morpholino)methanone], for which the pIC50 was more than 8.00.

Take `CS(=O)(=O)CCNc1nc(Nc2ccc(C(=O)N3CCOCC3)c3c2OCCO3)nc2[nH]cc(Cl)c12` [Compound 70, (8-((5-chloro-4-((2-(methylsulfonyl)ethyl)amino)-7H-pyrrolo[2,3-d]pyrimidin-2-yl)amino)-2,3-dihydrobenzo[b][1,4]dioxin-5-yl)(morpholino)methanone]: the pIC50 is more than 8.00.

`COc1cc(S(=O)(=O)N2CCC(N3CCOCC3)CC2)ccc1Nc1nc(NCCS(C)(=O)=O)c2c(Cl)c[nH]c2n1` [Compound 69, 5-chloro-N2-(2-methoxy-4-((4-morpholinopiperidin-1-yl)sulfonyl)phenyl)-N4-(2-(methylsulfonyl)ethyl)-7H-pyrrolo[2,3-d]pyrimidine-2,4-diamine] showed a pIC50 of more than 8.00.

`O=C(c1ccc(Nc2nc(NC3CCCCC3)c3c(Cl)c[nH]c3n2)c2c1CCO2)N1CCC(N2CCOCC2)CC1` [Compound 80, (7-((5-chloro-4-(cyclohexylamino)-7H-pyrrolo[2,3-d]pyrimidin-2-yl)amino)-2,3-dihydrobenzofuran-4-yl)(4-morpholinopiperidin-1-yl)methanone] gave a pIC50 of 6.00 to 7.00.

The molecule `O=C(c1ccc(Nc2nc(NCC3CCCC3)c3c(Cl)c[nH]c3n2)c2c1OCCO2)N1CCOCC1` [Compound 46, (8-((5-chloro-4-((cyclopentylmethyl)amino)-7H-pyrrolo[2,3-d]pyrimidin-2-yl)amino)-2,3-dihydrobenzo[b][1,4]dioxin-5-yl)(morpholino)methanone] gave a pIC50 of 6.00 to 7.00.

For `O=C(c1ccc(Nc2nc(N[C@H]3CCOC3)c3c(Cl)c[nH]c3n2)c2c1OCCO2)N1CCOCC1` [Compound 95], the pIC50 is more than 8.00.

Turning to `CCCCNc1nc(Nc2ccc(S(=O)(=O)N3CCC(N4CCOCC4)CC3)cc2OC)nc2[nH]cc(Cl)c12` [Compound 72, N4-butyl-5-chloro-N2-(2-methoxy-4-((4-morpholinopiperidin-1-yl)sulfonyl)phenyl)-7H-pyrrolo[2,3-d]pyrimidine-2,4-diamine], the negative-log IC50 (pIC50) is 7.00 to 8.00.

Molecule `COc1cc(S(=O)(=O)N2CCOCC2)ccc1Nc1nc(NC2CCCC2)c2c(Cl)c[nH]c2n1` [Compound 55, 5-chloro-N4-cyclopentyl-N2-(2-methoxy-4-(morpholinosulfonyl)phenyl)-7H-pyrrolo[2,3-d]pyrimidine-2,4-diamine] gave a pIC50 of 6.00 to 7.00.

In turn, `CNc1nc(Nc2ccc(S(C)(=O)=O)cc2OC)nc2[nH]cc(Cl)c12` [Compound 13, 5-chloro-N2-(2-methoxy-4-(methylsulfonyl)phenyl)-N4-methyl-7H-pyrrolo[2,3-d]pyrimidine-2,4-diamine] gave a pIC50 of more than 8.00.

In turn, `CCCNc1nc(Nc2ccc(C(=O)N3CCC(N4CCOCC4)CC3)c3c2OCC3)nc2[nH]cc(Cl)c12` [Compound 102, (7-((5-chloro-4-(propylamino)-7H-pyrrolo[2,3-d]pyrimidin-2-yl)amino)-2,3-dihydrobenzofuran-4-yl)(4-morpholinopiperidin-1-yl)methanone] gave a pIC50 of 7.00 to 8.00.

In the case of `COc1cc(S(C)(=O)=O)ccc1Nc1nc(NC2CCC2)c2c(Cl)c[nH]c2n1` [Compound 29, 5-chloro-N4-cyclobutyl-N2-(2-methoxy-4-(methylsulfonyl)phenyl)-7H-pyrrolo[2,3-d]pyrimidine-2,4-diamine], the pIC50 was 7.00 to 8.00.

The molecule `COc1cc(P2(=O)CCN(C3CC3)CC2)ccc1Nc1nc(NCC(C)C)c2c(Cl)c[nH]c2n1` [Compound 96, 4-(4-((5-chloro-4-(isobutylamino)-7H-pyrrolo[2,3-d]pyrimidin-2-yl)amino)-3-methoxyphenyl)-1-cyclopropyl-1,4-azaphosphinane 4-oxide] showed a pIC50 of 6.00 to 7.00.

`COc1cc(S(C)(=O)=O)ccc1Nc1nc(NC2CC2)c2c(Cl)c[nH]c2n1` [Compound 26, 5-chloro-N4-cyclopropyl-N2-(2-methoxy-4-(methylsulfonyl)phenyl)-7H-pyrrolo[2,3-d]pyrimidine-2,4-diamine] had a negative logarithm of the IC50 (pIC50) of more than 8.00.

`CCCNc1nc(Nc2ccc(P3(=O)CCN(C(C)=O)CC3)cc2OC)nc2[nH]cc(Cl)c12` [Compound 100, 1-(4-(4-((5-chloro-4-(propylamino)-7H-pyrrolo[2,3-d]pyrimidin-2-yl)amino)-3-methoxyphenyl)-4-oxido-1,4-azaphosphinan-1-yl)ethan-1-one]: the pIC50 was 7.00 to 8.00.

`CNc1nc(Nc2ccc(P3(=O)CCN(C4CC4)CC3)cc2OC)nc2[nH]cc(Cl)c12` [Compound 85, 4-(4-((5-chloro-4-(methylamino)-7H-pyrrolo[2,3-d]pyrimidin-2-yl)amino)-3-methoxyphenyl)-1-cyclopropyl-1,4-azaphosphinane 4-oxide] gave a pIC50 of 7.00 to 8.00.

`COc1cc(S(=O)(=O)N2CCOCC2)ccc1Nc1nc(NCC2CCCC2)c2c(Cl)c[nH]c2n1` [Compound 45, 5-chloro-N4-(cyclopentylmethyl)-N2-(2-methoxy-4-(morpholinosulfonyl)phenyl)-7H-pyrrolo[2,3-d]pyrimidine-2,4-diamine] gave a pIC50 of 6.00 to 7.00.

In turn, `COCCNc1nc(Nc2ccc(C(=O)N3CCC(N4CCOCC4)CC3)c3c2OCCO3)nc2[nH]cc(Cl)c12` [Compound 5, (8-((5-chloro-4-((2-methoxyethyl)amino)-7H-pyrrolo[2,3-d]pyrimidin-2-yl)amino)-2,3-dihydrobenzo[b][1,4]dioxin-5-yl)(4-morpholinopiperidin-1-yl)methanone] gave a negative logarithm of the IC50 (pIC50) of more than 8.00.
